From the OligoGym collection
HELM strings list units from the 5' end as sugar, base in round brackets, then linkage (d deoxyribose, r ribose, m 2'-O-methyl, p phosphodiester). Strings are as the collection lists them; they lack the last nucleoside at the 3' end of the tested compound. [moe] = 2'-O-(2-methoxyethyl) (MOE); [sp] = phosphorothioate linkage; [m5C] = 5-methylcytosine

These substances were tested against PRNP (assay: mouse, dose not given). Details: ASO.

| Substance | 3 h FOB score [score 0-7] |
| --- | --- |
| RNA1{[moe](T)[sp].[moe](T)p.[moe](G)p.[moe]([m5C])p.[moe](A)[sp].d(G)[sp].d(G)[sp].d(T)[sp].d(A)[sp].d(A)[sp].d(G)[sp].d(T)[sp].d(T)[sp].d([m5C])[sp].d(T)[sp].[moe]([m5C])p.[moe](A)p.[moe](G)[sp].[moe](G)}$$$$ (last 3' nucleoside missing) | 5.25 |
| RNA1{[moe](T)[sp].[moe](T)p.[moe](T)p.[moe](A)p.[moe]([m5C])[sp].d(T)[sp].d(T)[sp].d(T)[sp].d(T)[sp].d([m5C])[sp].d(A)[sp].d(G)[sp].d([m5C])[sp].d(T)[sp].d(G)[sp].[moe]([m5C])p.[moe]([m5C])p.[moe](T)[sp].[moe](T)}$$$$ (last 3' nucleoside missing) | 6 |
| RNA1{[moe](T)[sp].[moe](T)p.[moe](T)p.[moe](G)p.[moe](A)[sp].d(T)[sp].d(T)[sp].d(T)[sp].d([m5C])[sp].d(A)[sp].d(A)[sp].d(G)[sp].d(T)[sp].d([m5C])[sp].d([m5C])[sp].[moe]([m5C])p.[moe](A)p.[moe](G)[sp].[moe](A)}$$$$ (last 3' nucleoside missing) | 2.25 |
| RNA1{[moe](T)[sp].[moe](T)p.[moe](T)p.[moe](G)p.[moe](G)[sp].d(A)[sp].d(G)[sp].d(G)[sp].d([m5C])[sp].d(T)[sp].d([m5C])[sp].d(T)[sp].d(T)[sp].d(T)[sp].d(T)[sp].[moe](A)p.[moe](G)p.[moe](G)[sp].[moe](T)}$$$$ (last 3' nucleoside missing) | 4 |
| RNA1{[moe](T)[sp].[moe](T)p.[moe](T)p.[moe](G)p.[moe]([m5C])[sp].d(T)[sp].d(G)[sp].d(T)[sp].d(T)[sp].d(A)[sp].d(T)[sp].d(A)[sp].d([m5C])[sp].d(T)[sp].d(T)[sp].[moe](T)p.[moe](T)p.[moe](A)[sp].[moe]([m5C])}$$$$ (last 3' nucleoside missing) | 1.25 |
| RNA1{[moe](T)[sp].[moe](T)p.[moe]([m5C])p.[moe](A)p.[moe](G)[sp].d(A)[sp].d(T)[sp].d(T)[sp].d(T)[sp].d(T)[sp].d(T)[sp].d([m5C])[sp].d(A)[sp].d([m5C])[sp].d(A)[sp].[moe](T)p.[moe](A)p.[moe](T)[sp].[moe](G)}$$$$ (last 3' nucleoside missing) | 1 |
| RNA1{[moe](T)[sp].[moe](T)p.[moe]([m5C])p.[moe]([m5C])p.[moe](A)[sp].d(G)[sp].d([m5C])[sp].d(T)[sp].d(T)[sp].d([m5C])[sp].d(T)[sp].d(T)[sp].d(A)[sp].d(A)[sp].d(T)[sp].[moe](G)p.[moe]([m5C])p.[moe](A)[sp].[moe](T)}$$$$ (last 3' nucleoside missing) | 0 |
| RNA1{[moe](T)[sp].[moe]([m5C])p.[moe](A)p.[moe](G)p.[moe](T)[sp].d(G)[sp].d(T)[sp].d(T)[sp].d(G)[sp].d(T)[sp].d(G)[sp].d(A)[sp].d([m5C])[sp].d(A)[sp].d(A)[sp].[moe](T)p.[moe](A)p.[moe](T)[sp].[moe](T)}$$$$ (last 3' nucleoside missing) | 4.25 |
| RNA1{[moe](T)[sp].[moe]([m5C])p.[moe](A)p.[moe](G)p.[moe](T)[sp].d(T)[sp].d(T)[sp].d(T)[sp].d(T)[sp].d([m5C])[sp].d([m5C])[sp].d([m5C])[sp].d([m5C])[sp].[moe](A)p.[moe]([m5C])p.[moe](A)[sp].[moe](T)}$$$$ (last 3' nucleoside missing) | 0 |
| RNA1{[moe](T)[sp].[moe]([m5C])p.[moe](A)p.[moe](G)p.[moe](T)p.d(T)[sp].d(T)[sp].d(T)[sp].d(T)[sp].d([m5C])[sp].d([m5C])[sp].d([m5C])[sp].d([m5C])[sp].d(A)[sp].[moe]([m5C])p.[moe](A)p.[moe](T)[sp].[moe](A)}$$$$ (last 3' nucleoside missing) | 0 |
| RNA1{[moe](T)[sp].[moe]([m5C])p.[moe](A)p.[moe](T)p.[moe](A)[sp].d(T)[sp].d(T)[sp].d(T)[sp].d([m5C])[sp].d(T)[sp].d(G)[sp].d(T)[sp].d([m5C])[sp].d(A)[sp].d(T)[sp].[moe]([m5C])p.[moe](T)p.[moe]([m5C])[sp].[moe]([m5C])}$$$$ (last 3' nucleoside missing) | 3 |
| RNA1{[moe](T)[sp].[moe]([m5C])p.[moe](A)p.[moe](T)p.[moe](A)p.d(A)[sp].d(T)[sp].d(T)[sp].d(T)[sp].d(T)[sp].d([m5C])[sp].d(T)[sp].d(T)[sp].d(A)[sp].[moe](G)p.[moe]([m5C])p.[moe](T)[sp].[moe](A)}$$$$ (last 3' nucleoside missing) | 0 |
| RNA1{[moe](T)[sp].[moe]([m5C])p.[moe](A)p.[moe](T)p.[moe]([m5C])[sp].d(A)[sp].d(T)[sp].d(T)[sp].d(T)[sp].d(T)[sp].d(G)[sp].d([m5C])[sp].d([m5C])[sp].d(A)[sp].d(T)[sp].[moe](T)p.[moe](T)p.[moe](A)[sp].[moe](T)}$$$$ (last 3' nucleoside missing) | 6 |
| RNA1{[moe](T)[sp].[moe]([m5C])p.[moe](A)p.[moe]([m5C])p.[moe](T)[sp].d(G)[sp].d(T)[sp].d(G)[sp].d(A)[sp].d(A)[sp].d(T)[sp].d(A)[sp].d(T)[sp].d(G)[sp].d(T)[sp].[moe]([m5C])p.[moe]([m5C])p.[moe](T)[sp].[moe]([m5C])}$$$$ (last 3' nucleoside missing) | 5 |
| RNA1{[moe](T)[sp].[moe]([m5C])p.[moe](G)p.[moe]([m5C])p.[moe]([m5C])[sp].d(A)[sp].d(T)[sp].d(A)[sp].d(A)[sp].d(T)[sp].d(G)[sp].d(A)[sp].d([m5C])[sp].d(T)[sp].d(G)[sp].[moe]([m5C])p.[moe](T)p.[moe]([m5C])[sp].[moe](T)}$$$$ (last 3' nucleoside missing) | 4.5 |
| RNA1{[moe](T)[sp].[moe]([m5C])p.[moe](T)p.[moe](A)p.[moe](T)[sp].d(G)[sp].d(T)[sp].d(T)[sp].d(T)[sp].d(T)[sp].d([m5C])[sp].d([m5C])[sp].d(A)[sp].[moe](G)p.[moe](T)p.[moe](G)[sp].[moe]([m5C])}$$$$ (last 3' nucleoside missing) | 0 |
| RNA1{[moe](T)[sp].[moe]([m5C])p.[moe](T)p.[moe](A)p.[moe](T)[sp].d(G)[sp].d(T)[sp].d(T)[sp].d(T)[sp].d(T)[sp].d([m5C])[sp].d([m5C])[sp].d(A)[sp].d(G)[sp].d(T)[sp].[moe](G)p.[moe]([m5C])p.[moe]([m5C])[sp].[moe]([m5C])}$$$$ (last 3' nucleoside missing) | 0 |
| RNA1{[moe](T)[sp].[moe]([m5C])p.[moe](T)p.[moe](A)p.[moe](T)p.d(G)[sp].d(T)[sp].d(T)[sp].d(T)[sp].d(T)[sp].d([m5C])[sp].d([m5C])[sp].d(A)[sp].d(G)[sp].[moe](T)[sp].[moe](G)p.[moe]([m5C])p.[moe]([m5C])}$$$$ (last 3' nucleoside missing) | 0 |
| RNA1{[moe](T)[sp].[moe]([m5C])p.[moe](T)p.[moe](A)p.[moe](T)p.d(G)[sp].d(T)[sp].d(T)[sp].d(T)[sp].d(T)[sp].d([m5C])[sp].d([m5C])[sp].d(A)[sp].d(G)[sp].[moe](T)p.[moe](G)p.[moe]([m5C])[sp].[moe]([m5C])}$$$$ (last 3' nucleoside missing) | 0 |
| RNA1{[moe](T)[sp].[moe]([m5C])p.[moe](T)p.[moe](A)p.d(T)[sp].d(G)[sp].d(T)[sp].d(T)[sp].d(T)[sp].d(T)[sp].d([m5C])[sp].d([m5C])[sp].d(A)[sp].d(G)[sp].[moe](T)p.[moe](G)p.[moe]([m5C])p.[moe]([m5C])[sp].[moe]([m5C])}$$$$ (last 3' nucleoside missing) | 1 |
| RNA1{[moe](T)[sp].[moe]([m5C])p.[moe](T)p.[moe](G)p.[moe](A)[sp].d(G)[sp].d(A)[sp].d(T)[sp].d(T)[sp].d(T)[sp].d(G)[sp].d(T)[sp].d(T)[sp].d(T)[sp].d(T)[sp].[moe](A)p.[moe](G)p.[moe]([m5C])[sp].[moe]([m5C])}$$$$ (last 3' nucleoside missing) | 3 |
| RNA1{[moe](T)[sp].[moe]([m5C])p.[moe](T)p.[moe](T)p.[moe](A)[sp].d(G)[sp].d(A)[sp].d(T)[sp].d(T)[sp].d(T)[sp].d(T)[sp].d(T)[sp].d(G)[sp].d(G)[sp].d(A)[sp].[moe]([m5C])p.[moe](G)p.[moe](G)[sp].[moe](G)}$$$$ (last 3' nucleoside missing) | 4.5 |
| RNA1{[moe](T)[sp].[moe]([m5C])p.[moe](T)p.[moe](T)p.[moe](T)[sp].d(T)[sp].d([m5C])[sp].d(T)[sp].d(T)[sp].d(T)[sp].d(G)[sp].d([m5C])[sp].d(A)[sp].d([m5C])[sp].d(A)[sp].[moe]([m5C])p.[moe](T)p.[moe](G)[sp].[moe](A)}$$$$ (last 3' nucleoside missing) | 3 |
| RNA1{[moe](T)[sp].[moe]([m5C])p.[moe](T)p.[moe]([m5C])p.[moe](A)[sp].d(G)[sp].d(G)[sp].d(T)[sp].d([m5C])[sp].d(T)[sp].d(A)[sp].d([m5C])[sp].d(T)[sp].d([m5C])[sp].d(T)[sp].[moe](A)p.[moe](T)p.[moe](G)[sp].[moe](T)}$$$$ (last 3' nucleoside missing) | 1.25 |
| RNA1{[moe](T)[sp].[moe]([m5C])p.[moe](T)p.[moe]([m5C])p.[moe]([m5C])[sp].d(T)[sp].d(T)[sp].d(G)[sp].d(A)[sp].d(A)[sp].d(T)[sp].d(T)[sp].d(T)[sp].d([m5C])[sp].d(T)[sp].[moe](T)p.[moe](T)p.[moe]([m5C])[sp].[moe](A)}$$$$ (last 3' nucleoside missing) | 0 |
| RNA1{[moe](T)[sp].[moe]([m5C])p.[moe]([m5C])p.[moe](A)p.[moe](T)[sp].d(T)[sp].d(T)[sp].d(T)[sp].d([m5C])[sp].d(T)[sp].d(G)[sp].d(T)[sp].d(G)[sp].d([m5C])[sp].d(T)[sp].[moe](T)p.[moe](T)p.[moe](T)[sp].[moe]([m5C])}$$$$ (last 3' nucleoside missing) | 3.75 |
